# Measured values published in the ASAP Discovery antiviral challenge data (2025).
# Several values for one entry are separate records, joined by “and”; a condition that tells them apart may be missing. Identical values can stand only once.
# Legend:
# [1] = mouse; liver_microsomes
# [2] = mdck_mdr1
# [3] = human; liver_microsomes
# [4] = not given; remark: listed apart in the source
SMILES,microsomal CLint [1],Papp [2],solubility kinetic,microsomal CLint [3],logD [4]
CCNC(=O)c1cc2c(N[C@H](c3ccc4c(c3)S(=O)(=O)NCC4)C(C)C)ncnc2[nH]1 (racemic),45 µL/min/mg,1.96 ×10⁻⁶ cm/s,344 µM,85 µL/min/mg,2.6
CC(C)[C@H](Nc1ncnc2[nH]c(-c3cnn(C)c3)cc12)c1ccc2c(c1)S(=O)(=O)NCC2 (racemic),87 µL/min/mg,1.58 ×10⁻⁶ cm/s,105 µM,120 µL/min/mg,3.2
NCc1cccc(NC(=O)[C@@H](NC(=O)OCc2ccccc2)c2ccc(OCc3ccccc3)cc2)c1,1 µL/min/mg,1.53 ×10⁻⁶ cm/s,23 µM,11 µL/min/mg,3.2
O=C(O)c1cc(Cl)ccc1NS(=O)(=O)c1ccc(Oc2ccccc2Cl)cc1,13 µL/min/mg,4.01 ×10⁻⁶ cm/s,369 µM,155 µL/min/mg,3
CC(C)[C@H](Nc1ncnc2[nH]c(-c3cnn(C)c3C#N)cc12)c1ccc2c(c1)OCCO2,257 µL/min/mg,5.56 ×10⁻⁶ cm/s,15 µM,706 µL/min/mg,3.3
CC(C)[C@H](Nc1ncnc2[nH]c(-c3cnn(CC(N)=O)c3)cc12)c1ccc2c(c1)NC(=O)CO2 (racemic),11 µL/min/mg,1.36 ×10⁻⁶ cm/s,25 µM,17 µL/min/mg,2.5
CC(C)[C@@H](Nc1ncnc2[nH]c(-c3cnn(C)c3C#N)cc12)c1ccc2c(c1)OCCO2,129 µL/min/mg,5.11 ×10⁻⁶ cm/s,20 µM,47 µL/min/mg,3.4
COc1cc(Cc2c(-c3ccc(F)cc3)noc2C)nc(N2CCNCC2)n1,33 µL/min/mg,4.78 ×10⁻⁶ cm/s,325 µM,15 µL/min/mg,2.1
"CC(C)[C@H](Nc1ncnc2[nH]c(-c3cnn(C)c3C#N)cc12)c1ccc2c(c1)NC(=O)CO2 (single isomer, unassigned)",81 µL/min/mg and 147 µL/min/mg,1.22 ×10⁻⁶ cm/s and 2.35 ×10⁻⁶ cm/s,26 µM and 19 µM,115 µL/min/mg and 52 µL/min/mg,
"CNCc1cc(-c2cc3c(N[C@H](c4ccc5c(c4)S(=O)(=O)CCC5)C(C)C)ncnc3[nH]2)co1 (single isomer, unassigned)",40 µL/min/mg and 54 µL/min/mg,,358 µM and 345 µM,67 µL/min/mg and 133 µL/min/mg,2.1 and 2.2
CC(C)[C@H](Nc1ncnc2[nH]ccc12)c1ccc2c(c1)S(=O)(=O)CCC2 (racemic),138 µL/min/mg,3.3 ×10⁻⁶ cm/s,385 µM,37 µL/min/mg,2.5
CNC(=O)Cn1cc(-c2cc3c(N[C@H](c4ccc5c(c4)S(=O)(=O)CCC5)C(C)C)ncnc3[nH]2)cn1 (racemic),77 µL/min/mg,0.47 ×10⁻⁶ cm/s,306 µM,94 µL/min/mg,2.4
O=C(Nc1cc2c(cc1Br)CNC2)c1cc(F)cc2[nH]ncc12,299 µL/min/mg,7.65 ×10⁻⁶ cm/s,47 µM,11.4 µL/min/mg,1.1
"Cn1ncc(-c2cc3c(N[C@H](c4ccc5c(n4)OCCO5)C(C)(C)C)ncnc3[nH]2)c1C#N (single isomer, unassigned)",226 µL/min/mg,14 ×10⁻⁶ cm/s,24 µM,283 µL/min/mg,3.3
CCCC[C@H](NC(=O)OC(C)(C)C)C(=O)N[C@H](C(=O)NCc1ccc(CN)cc1)c1ccc(OCc2ccccc2)cc1 (mixture of isomers),7.44 µL/min/mg,0.833 ×10⁻⁶ cm/s,143 µM,56 µL/min/mg,
O=C(/C=C/c1ccccc1)C(=O)N1CCN(CCc2ccccc2)CC1,181 µL/min/mg,3 ×10⁻⁶ cm/s,239 µM,167 µL/min/mg,3.3
CC(C)[C@H](Nc1ncnc(N)c1Cl)c1ccc2c(c1)S(=O)(=O)CCC2 (racemic),204 µL/min/mg,10.1 ×10⁻⁶ cm/s,,79 µL/min/mg,2.4
CN(c1ccc2c(c1)CNC2)[C@H](C(=O)NCC(F)F)c1cc(Cl)cc(C2CC2)c1 (racemic),10.6 µL/min/mg,2.1 ×10⁻⁶ cm/s,172 µM,17.1 µL/min/mg,1.6
COc1ccc([C@H](CC(=O)O)NC(=O)c2ncnc3[nH]ccc23)cc1 (racemic),2 µL/min/mg,1.7 ×10⁻⁶ cm/s,,7 µL/min/mg,-0.38
O=C(Nc1cccc2c(C(=O)N[C@H]3c4ccccc4C[C@H]3C(=O)O)c[nH]c12)NC1CC1 (racemic),4 µL/min/mg,1.8 ×10⁻⁶ cm/s,,6 µL/min/mg,-0.05
CNC(=O)c1cc(Cl)c(F)cc1NS(=O)(=O)c1ccc(Oc2ccccc2Cl)cc1,45.6 µL/min/mg,6.11 ×10⁻⁶ cm/s,49 µM,71.3 µL/min/mg,
Cc1cc(-c2noc(C(F)(F)F)n2)ccc1OCCCc1cc(C(=O)N(C)C)no1,24.4 µL/min/mg,2.26 ×10⁻⁶ cm/s,9 µM,11 µL/min/mg,
